The experiment addresses T1, GAL4-DBD/RORγ-LBD (Homo sapiens, UniProt P51449).
T1 construct: expressed in transfected cells; host or cells: HEK293T
The experiment can be described thus: RORγt transactivation reporter assay (GAL4-DBD/RORγ-LBD, luciferase read out). It is filed as cell-based. To be noted: HEK293T cells, GAL4-UAS luciferase reporter, overnight (18-24 hours) incubation. The method, then: RORγt Transactivation Reporter Assay Protocol: The inhibition of RORγt activity in cells was evaluated using a GAL4-UAS reporter system in HEK293T cells employing a luciferase read out. RORγt ligand binding domain (LBD) was cloned into the pFN26A (BIND) vector (Promega #[…]) containing yeast GAL4-DBD to form a RORγt LBD-GAL4 DBD fusion construct. This vector also contained a Renilla Luciferase reporter expressed under a SV40 promoter which was used as a control for transfection efficiency. A transcriptional reporter expression construct pGL4.35 (Promega #[…]) was used to monitor RORγt LBD-GAL4 activity. This construct contained nine repeats of GAL4 binding site/upstream activating sequence (UAS) controlling expression of a firefly luciferase reporter Luc2P. When transfected together in cells, the RORγ-LBD-DBD fusion protein drives expression of the luciferase reporter. For the assay, HEK293T cells were plated in a flat bottom 96 well plate at a density of 25,000 cells/well/100 ul of DMEM high glucose medium (Sigma D5648) containing 10% FBS and antibiotic. Cells were incubated overnight at 37 C/5% CO2. The next day, medium from the wells was removed and replaced with 30 ul of OptiMEM® (Invitrogen #31985070). 100 ng each of pBIND RORγ LBD-DBD and pGL4.35 reporter plasmids was transfected in HEK293T cells using Lipofectamine 2000 (Invitrogen #11668-019) where 10 ul of transfection complex was added to the each well. Control transfections were performed with an empty pF[…] vector and pGL4.35 vector. The transfected cells were incubated for 5 hours at 37 C/5% CO2. After incubation, 40 ul of DMEM high glucose medium without FBS, with antibiotic was added to each well. A 10 mM stock solution of test compound prepared in 100% DMSO was first diluted in DMSO and then in DMEM medium without FBS to give the required final compound concentration. Concentration of DMSO in the test compound solution was 0.4%. 20 ul of diluted compound solution was added to each well. Cells were incubated overnight (18-24 hours) at 37 C/5% CO2. The next day, luciferase assay was performed using the Dual Glo® Luciferase Assay System (Promega #E2940). Briefly, medium was removed from the wells and replaced with 40 ul 1× Passive Lysis Buffer (Promega #E1941). Plate was incubated at room temperature on a plate shaker at 1000 rpm for 40 min. After incubation, plate was centrifuged at 1000 rpm for 2 min. 20 ul of the lysate was transferred from each well to that of solid white half area 96 well plate (Costar #3693). Dual Glo® Reagent was thawed to room temperature and 20 ul was added to each well containing lysate. Plate was centrifuged at 1000 rpm/2 min and incubated at room temperature on a plate shaker at 600 rpm/25 min. Firefly luciferase signal was measured on a Tecan Safire2. After measurement, 20 ul of Dual Glo® Stop Glo® Reagent was added to each well. Plate was centrifuged at 1000 rpm/2 min and incubated at room temperature on a plate shaker at 600 rpm/25 min. Renilla luciferase signal was measured on Tecan Safire 2. IC50 values for test compounds were calculated from the normalized luciferase signal data using GraphPad Prism software.
For orientation: Reporter assays use an easily measured gene product as a stand-in for the process of interest.

A value given as a limit tells only on which side of the number the result lay.

What is called IC50 is the concentration at which inhibition is half-maximal.

T1 sequence (P51449 269-508 limits assumed): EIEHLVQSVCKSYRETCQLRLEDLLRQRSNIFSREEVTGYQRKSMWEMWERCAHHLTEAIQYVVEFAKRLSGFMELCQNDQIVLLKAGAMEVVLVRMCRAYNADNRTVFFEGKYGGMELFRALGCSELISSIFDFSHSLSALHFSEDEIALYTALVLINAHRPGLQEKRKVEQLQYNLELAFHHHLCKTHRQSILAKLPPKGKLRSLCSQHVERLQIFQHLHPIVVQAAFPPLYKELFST
T1 sequence (P04386 1-147 partner limits assumed): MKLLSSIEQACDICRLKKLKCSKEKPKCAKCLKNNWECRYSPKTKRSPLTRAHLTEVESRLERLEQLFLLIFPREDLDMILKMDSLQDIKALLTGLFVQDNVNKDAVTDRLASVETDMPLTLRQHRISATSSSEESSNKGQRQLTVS

Consider `O=C(O)c1ccc(-c2cc(C(=O)c3c(Cl)cccc3C3CC3)n3ccccc23)c(F)c1` [Example A-29, 4-[3-(2-chloro-6-cyclopropyl-benzoyl)indolizin-1-yl]-3-fluoro-benzoic acid], for which the IC50 was less than 0.5 µM. The molecule `CCOC(=O)c1ccc(-c2cc(C(=O)c3c(Cl)cccc3C3CC3)n3ccccc23)c(F)c1` [Example A-30, ethyl 4-[3-(2-chloro-6-cyclopropyl-benzoyl)indolizin-1-yl]-3-fluoro-benzoate] returned an IC50 of less than 0.5 µM. `CCOC(=O)c1ccc(-c2cc(C(=O)c3c(Cl)cccc3C3CC3)n3ccccc23)cc1` [Example A-31, ethyl 4-[3-(2-chloro-6-cyclopropyl-benzoyl)indolizin-1-yl]benzoate] had an IC50 of less than 0.5 µM. Molecule `CCOC(=O)c1ccc(-c2cc(C(=O)c3c(F)cccc3Cl)n3cccc(F)c23)cc1` [Example A-32, ethyl 4-[3-(2-chloro-6-fluoro-benzoyl)-8-fluoro-indolizin-1-yl]benzoate] came in with an IC50 of less than 0.5 µM.

As for `O=C(O)c1ccc(-c2cc(C(=O)c3c(F)cccc3Cl)n3cccc(F)c23)cc1` [Example A-34, 4-[3-(2-chloro-6-fluoro-benzoyl)-8-fluoro-indolizin-1-yl]benzoic acid], the IC50 was less than 0.5 µM. As to `O=C(O)c1ccc(-c2cc(C(=O)c3c(F)cccc3Cl)n3cccc(F)c23)c(F)c1` [Example A-35, 4-[3-(2-chloro-6-fluoro-benzoyl)-8-fluoro-indolizin-1-yl]-3-fluoro-benzoic acid], the IC50 is less than 0.5 µM. The molecule `CCOC(=O)c1ccc(-c2cc(C(=O)c3c(F)cccc3F)n3ccccc23)cc1` [Example A-36, ethyl 4-[3-(2,6-difluorobenzoyl)indolizin-1-yl]benzoate] had an IC50 of less than 0.5 µM.

Regarding `CCOC(=O)c1ccc(-c2cc(C(=O)c3c(F)cccc3F)n3ccccc23)c(F)c1` [Example A-38, ethyl 4-[3-(2,6-difluorobenzoyl)indolizin-1-yl]-3-fluoro-benzoate], the IC50 was less than 0.5 µM. Take `O=C(O)c1ccc(-c2cc(C(=O)c3c(F)cccc3F)n3ccccc23)c(F)c1` [Example A-39, 4-[3-(2,6-difluorobenzoyl)indolizin-1-yl]-3-fluoro-benzoic acid]: the IC50 was less than 0.5 µM. With `CCOC(=O)c1ccc(-c2cc(C(=O)c3c(F)ccc(F)c3F)n3ccccc23)c(F)c1` [Example A-41, ethyl 3-fluoro-4-[3-(2,3,6-trifluorobenzoyl)indolizin-1-yl]benzoate], the IC50 was less than 0.5 µM.

The molecule `O=C(O)c1ccc(-c2cc(C(=O)c3c(F)ccc(F)c3F)n3ccccc23)cc1` [Example A-42, 4-[3-(2,3,6-trifluorobenzoyl)indolizin-1-yl]benzoic acid] came in with an IC50 of less than 0.5 µM.

For the molecule `O=C(O)c1ccc(-c2cc(C(=O)c3c(Cl)ccc(F)c3Cl)n3cccc(F)c23)cc1` [Example A-43, 4-[3-(2,6-dichloro-3-fluoro-benzoyl)-8-fluoro-indolizin-1-yl]benzoic acid], the IC50 was less than 0.5 µM. Under `O=C(O)c1ccc(-c2cc(C(=O)c3c(F)ccc(F)c3F)n3ccccc23)c(F)c1` [Example A-44, 3-fluoro-4-[3-(2,3,6-trifluorobenzoyl)indolizin-1-yl]benzoic acid] stands less than 0.5 µM; under `CCOC(=O)c1ccc(-c2cc(C(=O)c3c(F)cccc3F)n3cccc(F)c23)cc1` [Example A-45, ethyl 4-[3-(2,6-difluorobenzoyl)-8-fluoro-indolizin-1-yl]benzoate], less than 0.5 µM; under `CCOC(=O)c1ccc(-c2cc(C(=O)c3c(F)cccc3F)n3cccc(F)c23)c(F)c1` [Example A-46, ethyl 4-[3-(2,6-difluorobenzoyl)-8-fluoro-indolizin-1-yl]-3-fluoro-benzoate], less than 0.5 µM. Molecule `O=C(O)c1ccc(-c2cc(C(=O)c3c(F)cccc3F)n3cccc(F)c23)cc1` [Example A-47, 4-[3-(2,6-difluorobenzoyl)-8-fluoro-indolizin-1-yl]benzoic acid] registered an IC50 of less than 0.5 µM. For the molecule `O=C(O)c1ccc(-c2cc(C(=O)c3c(F)cccc3F)n3cccc(F)c23)c(F)c1` [Example A-48, 4-[3-(2,6-difluorobenzoyl)-8-fluoro-indolizin-1-yl]-3-fluoro-benzoic acid], the IC50 is less than 0.5 µM. Consider `O=C(O)c1ccc(-c2cc(C(=O)c3c(Cl)ccc(F)c3Cl)n3cccc(F)c23)c(F)c1` [Example A-49, 4-[3-(2,6-dichloro-3-fluoro-benzoyl)-8-fluoro-indolizin-1-yl]-3-fluoro-benzoic acid], for which the IC50 was less than 0.5 µM. The value for `O=C(O)c1ccc(-c2cc(C(=O)c3c(Cl)cccc3Br)n3ccccc23)cc1` [Example A-50, 4-[3-(2-bromo-6-chloro-benzoyl)indolizin-1-yl]benzoic acid] was less than 5 µM. As for `O=C(O)c1ccc(-c2cc(C(=O)c3c(Cl)cccc3Br)n3ccccc23)c(F)c1` [Example A-52, 4-[3-(2-bromo-6-chloro-benzoyl)indolizin-1-yl]-3-fluoro-benzoic acid], the IC50 was less than 1 µM.

The molecule `CC(C)(C)OC(=O)N1CC=C(c2cc(C(=O)c3c(Cl)cccc3Cl)n3ccccc23)CC1` [Example A-54, tert-butyl 4-[3-(2,6-dichlorobenzoyl)indolizin-1-yl]-3,6-dihydro-2H-pyridine-1-carboxylate] came in with an IC50 of more than 5 µM. Under `CC(C)(C)OC(=O)N1CCC=C(c2cc(C(=O)c3c(Cl)ccc(F)c3Cl)n3ccccc23)C1` [Example A-55, tert-butyl 5-[3-(2,6-dichloro-3-fluoro-benzoyl)indolizin-1-yl]-3,6-dihydro-2H-pyridine-1-carboxylate] stands more than 5 µM. With `CCOC(=O)c1ccc(-c2cc(C(=O)c3c(Cl)ccc(F)c3Cl)n3ccccc23)cc1` [Example A-56, ethyl 4-[3-(2,6-dichloro-3-fluoro-benzoyl)indolizin-1-yl]benzoate], the IC50 was less than 0.5 µM. `O=C(O)c1cccc(-c2cc(C(=O)c3c(Cl)cccc3C(F)(F)F)n3ccccc23)c1` [Example A-57, 3-[3-[2-chloro-6-(trifluoromethyl)benzoyl]indolizin-1-yl]benzoic acid] returned an IC50 of more than 5 µM. Molecule `O=C(O)c1ccc(-c2cc(C(=O)c3c(Cl)cccc3C(F)(F)F)n3cccc(Cl)c23)cc1` [Example A-58, 4-[8-chloro-3-[2-chloro-6-(trifluoromethyl)benzoyl]indolizin-1-yl]benzoic acid] had an IC50 of less than 0.5 µM. `O=C(O)c1ccc(-c2cc(C(=O)c3c(Cl)cccc3C(F)(F)F)n3cccc(Cl)c23)c(F)c1` [Example A-59, 4-[8-chloro-3-[2-chloro-6-(trifluoromethyl)benzoyl]indolizin-1-yl]-3-fluoro-benzoic acid]: the IC50 is less than 0.5 µM. Take `O=C(O)c1ccc(-c2cc(C(=O)c3c(Cl)cccc3C(F)(F)F)n3ccccc23)cc1F` [Example A-60, 4-[3-[2-chloro-6-(trifluoromethyl)benzoyl]indolizin-1-yl]-2-fluoro-benzoic acid]: the IC50 was less than 0.5 µM. With `O=C(O)c1ccc(-c2cc(C(=O)c3c(Cl)cccc3Cl)n3cccc(C(F)(F)F)c23)cc1` [Example A-61, 4-[3-(2,6-dichlorobenzoyl)-8-(trifluoromethyl)indolizin-1-yl]benzoic acid], the IC50 is less than 0.5 µM. Consider `CCOC(=O)c1ccc(-c2cc(C(=O)c3c(Cl)cccc3Cl)n3cccc(C(F)(F)F)c23)cc1` [Example A-62, ethyl 4-[3-(2,6-dichlorobenzoyl)-8-(trifluoromethyl)indolizin-1-yl]benzoate], for which the IC50 is less than 0.5 µM.

In turn, `O=C(O)c1ccc(-c2cc(C(=O)c3c(Cl)cccc3Cl)n3cc(C(F)(F)F)ccc23)cc1` [Example A-63, 4-[3-(2,6-dichlorobenzoyl)-6-(trifluoromethyl)indolizin-1-yl]benzoic acid] registered an IC50 of less than 5 µM. In the case of `CCOC(=O)c1ccc(-c2cc(C(=O)c3c(Cl)cccc3Cl)n3cc(C(F)(F)F)ccc23)cc1` [Example A-64, ethyl 4-[3-(2,6-dichlorobenzoyl)-6-(trifluoromethyl)indolizin-1-yl]benzoate], the IC50 was less than 0.5 µM.
